Experimental data: ChEMBL document CHEMBL4622948, “SAR of non-hydrolysable analogs of pyridoxal 5'-phosphate against low molecular weight protein tyrosine phosphatase isoforms” (Bioorg Med Chem Lett, 2020)

Columns and labels:
[1] = molecular target: T1, Low molecular weight phosphotyrosine protein phosphatase (Homo sapiens) (UniProt P24666); assay: Inhibition of LMW-PTP isoform B (unknown origin)
T1 sequence (whole entry): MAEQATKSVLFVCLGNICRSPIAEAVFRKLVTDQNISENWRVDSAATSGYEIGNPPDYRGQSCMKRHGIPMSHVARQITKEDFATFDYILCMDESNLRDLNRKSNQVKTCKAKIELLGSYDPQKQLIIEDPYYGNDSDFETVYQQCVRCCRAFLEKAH

Homo sapiens = species: Homo sapiens; assay: Selectivity index, ratio of Ki for LMW-PTP isoform B (unknown origin) to Ki for LMW-PTP isoform A (unknown origin)
[2] = molecular target: T1, Low molecular weight phosphotyrosine protein phosphatase (Homo sapiens); assay: Inhibition of LMW-PTP isoform A (unknown origin)
[3] = molecular target: T2, Low molecular weight phosphotyrosine protein phosphatase (Homo sapiens, UniProt P24666); assay: Competitive inhibition of LMW-PTP isoform A (unknown origin)
T2 sequence (P24666 whole entry): T1 sequence (whole entry)

[4] = Competitive inhibition of bovine LMW-PTP isoform B using para-Nitrophenyl phosphate as substrate at pH 5 by Lineweaver-Burk double reciprocal plot analysis; parameters: species or system Bos taurus

Molecule `O=P(O)(O)CCc1cccc(O)c1` has a Kis [1] of 52.2 µM, a Ratio (Homo sapiens) of 4 and a Kis [2] of 13 µM.
In the case of `O=P(O)(O)/C=C/c1cccc(O)c1`, the Kis [1] is reported as 580 µM, the Ratio (Homo sapiens) is reported as 37 and the Kis [2] is reported as 15.7 µM.
For `O=P(O)(O)/C=C/c1ccccc1`, the Kis [1] was > 10000 µM, the Ratio (Homo sapiens) was > 21 and the Kis [2] was 482 µM.
For `Cc1ccc(CCP(=O)(O)O)cn1`, the Kis [1] was 15.6 µM, the Ratio (Homo sapiens) was 8.5 and the Kis [2] was 1.84 µM.
Molecule `Cc1ccc(/C=C/P(=O)(O)O)cc1` has a Kis [1] of 323 µM, a Ratio (Homo sapiens) of 4.8 and a Kis [2] of 66.8 µM.
For `O=P(O)(O)/C=C/c1cccnc1`, the Kis [1] was 1070 µM, the Ratio (Homo sapiens) was 4.4 and the Kis [2] was 243 µM.
In the case of `Cc1ccc(/C=C/P(=O)(O)O)cc1O`, the Kis [1] is reported as 42.4 µM, the Ratio (Homo sapiens) is reported as 0.8 and the Kis [2] is reported as 50.3 µM.
For `O=P(O)(O)C(F)(F)Cc1ccccc1`, the Kis [1] was > 10000 µM, the Ratio (Homo sapiens) was > 28 and the Kis [2] was 359 µM.
Molecule `O=P(O)(O)CCc1cccnc1` has a Kis [1] of 1080 µM, a Ratio (Homo sapiens) of 10.4 and a Kis [2] of 103 µM.
In the case of `Cc1ncc(COP(=O)(O)O)c(C=O)c1O` [PYRIDOXAL PHOSPHATE ANHYDROUS], the Ki [3] is reported as 13 µM and the Ki [4] is reported as 7.6 µM.
For `O=P(O)(O)CCc1ccccc1`, the Kis [1] was > 10000 µM, the Ratio (Homo sapiens) was > 18 and the Kis [2] was 552 µM.
In the case of `Cc1ccc(/C=C/P(=O)(O)O)cn1`, the Kis [1] is reported as 842 µM, the Ratio (Homo sapiens) is reported as 4 and the Kis [2] is reported as 213 µM.
For `Cc1ccc(CCP(=O)(O)O)cc1`, the Kis [1] was 323 µM, the Ratio (Homo sapiens) was 2.5 and the Kis [2] was 130 µM.
With `Cc1ncc(/C=C/P(=O)(O)O)c(C=O)c1O` the Kis [1] was 113 µM, the Ratio (Homo sapiens) was 22 and the Kis [2] was 5.14 µM.
Molecule `Cc1ncc(CCP(=O)(O)O)c(CO)c1O` has a Kis [1] of 552 µM, a Ratio (Homo sapiens) of 53 and a Kis [2] of 10.4 µM.
With `Cc1ncc(/C=C/P(=O)(O)O)c(CO)c1O` the Kis [1] was 6060 µM, the Ratio (Homo sapiens) was 372 and the Kis [2] was 16.3 µM.
Work on `Cc1ccc(CCP(=O)(O)O)cc1O` yielded a Kis [1] of 39.9 µM, a Ratio (Homo sapiens) of 11 and a Kis [2] of 3.59 µM.
Molecule `Cc1ncc(CCP(=O)(O)O)c(C=O)c1O` has a Kis [1] of 218 µM, a Ratio (Homo sapiens) of 2.9 and a Kis [2] of 74.9 µM.
